Series [1] concerns the target T1, human LBAT (Homo sapiens, UniProt Q14973).
T1 construct: expressed in transfected cells; kept under Geneticin selection
T1 sequence (Q14973 1-349): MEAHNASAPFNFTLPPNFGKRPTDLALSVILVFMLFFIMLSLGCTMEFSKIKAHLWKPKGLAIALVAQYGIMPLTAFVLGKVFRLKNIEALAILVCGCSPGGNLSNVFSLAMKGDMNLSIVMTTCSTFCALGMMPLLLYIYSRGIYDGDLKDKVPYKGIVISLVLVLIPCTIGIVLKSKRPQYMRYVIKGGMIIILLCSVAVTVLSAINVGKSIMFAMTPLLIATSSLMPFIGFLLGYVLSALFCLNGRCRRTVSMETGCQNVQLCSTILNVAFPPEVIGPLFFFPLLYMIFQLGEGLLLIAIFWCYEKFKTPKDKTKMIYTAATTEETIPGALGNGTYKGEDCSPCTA
Nature of the series: LBAT (h/m) assay: 3H-taurocholic acid uptake in human LBAT-overexpressing cells. The series is classed as cell-based. The settings on record: 0.3 μM 3H-taurocholic acid and 7.5 μM cold taurocholic acid, 20 minutes, read-out: hLBAT IC50. As to the method:
LBAT (h/m) Assay Protocol
20,000 cells (Human or Mouse LBAT-overexpressing cells) were seeded in 96-wells plate (Corning CLS3809) in 100 μL MEM-alpha medium (Gibco 12571-063) supplemented with 10% FBS (Gibco 10438026) containing Geneticin (Gibco 10131-027) (1 mg/mL) and incubated at 37° C. in 5% CO2 for 24 hours. After incubation, media was decanted from the wells and cells were washed two times with 300 μL of basal MEM-alpha medium (FBS-free). After decanting basal MEM-alpha medium each time, plates were tapped against paper towel to ensure maximum removal of residual media. For human LBAT, incubation mix was prepared by adding test inhibitor dilutions (3-fold serial dilution in DMSO (Sigma D2650), 10 points) in MEM-alpha (without FBS) containing 0.3 μM 3H-taurocholic acid (ARC ART-1368) and 7.5 μM cold taurocholic acid (Sigma T4009) (maintaining 0.2% final DMSO concentration). For mouse LBAT, incubation mix was prepared by adding test inhibitor dilutions (3-fold serial dilution in DMSO, 10 points) in MEM-alpha (without FBS) containing 0.3 μM 3H-taurocholic acid and 25 μM cold taurocholic acid maintaining 0.2% final DMSO concentration). 50 μL of incubation mix containing test inhibitors was then added to the wells (in duplicate) and the plates were incubated for 20 minutes in a CO2 incubator at 37° C. After incubation, the reaction was stopped by keeping the plates on ice water mix for 2-3 minutes and then the incubation mix was aspirated completely from the wells. The wells were washed two times with 250 μL of chilled unlabelled 1 mM taurocholic acid dissolved in HEPES (Gibco 15630080)-buffered (10 mM) HBSS (Gibco 14175079) (pH 7.4). The plates were tapped against a paper towel after every wash to ensure maximum removal of blocking buffer.
100 μL of MicroScint-20 (PerkinElmer 6013621) was added to the wells and kept overnight at room temperature before reading the plates in TopCount NXT™ Microplate Scintillation and Luminescence Counter from PerkinElmer under 3H Test protocol (set at 120 seconds reading time per well, with normal plate orientation).
(§1) Preparation of Test Compound Dilutions
(§2) All test compounds were provided in powder form at room temperature. 10 mM DMSO stocks of the test compounds were prepared, aliquoted and stored at −20° C. From the 10 mM DMSO stock of the compounds, a 3-fold serial dilution in DMSO was prepared to get a total of 10 dilutions of the test compounds. 0.5 μL of this dilution in DMSO was added to 250 μL of FBS-free basal media containing 3H-taurocholic acid and cold taurocholic acid to prepare the incubation mixture.

Series [2] concerns the target T2, human IBAT (Homo sapiens, UniProt Q12908).
T2 construct: expressed in transfected cells; kept under Puromycin selection
T2 sequence (Q12908 1-348): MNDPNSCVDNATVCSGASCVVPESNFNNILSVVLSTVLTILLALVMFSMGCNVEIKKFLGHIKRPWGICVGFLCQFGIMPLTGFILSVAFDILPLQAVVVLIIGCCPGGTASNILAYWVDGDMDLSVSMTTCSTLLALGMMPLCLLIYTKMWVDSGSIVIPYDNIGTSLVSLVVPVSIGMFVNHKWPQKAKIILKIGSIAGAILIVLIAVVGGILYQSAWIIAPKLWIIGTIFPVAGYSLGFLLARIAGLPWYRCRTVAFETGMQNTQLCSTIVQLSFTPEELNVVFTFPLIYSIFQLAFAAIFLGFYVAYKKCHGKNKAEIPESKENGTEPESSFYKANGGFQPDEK
Nature of the series: IBAT (h/m) assay: 3H-taurocholic acid uptake in human IBAT-overexpressing cells. The series is classed as cell-based. The settings on record: 0.25 μM 3H-taurocholic acid and 5 μM cold taurocholic acid, 20 minutes, highest test concentration 10 μM, read-out: hIBAT IC50. As to the method: IBAT (h/m) Assay Protocol
10,000 cells (Human or Mouse IBAT-overexpressing cells) were seeded in 96-wells plate (Corning CLS3809) in 200 μL MEM-alpha medium (Gibco 12571-063) supplemented with 10% FBS (Gibco 10438026) containing Puromycin (Gibco A1113803) (10 μg/mL) and incubated at 37° C. in 5% CO2 for 48 hours. After incubation, media was decanted from the wells and cells were washed two times with 300 μL of basal MEM-alpha medium (FBS-free). After decanting basal MEM-alpha medium each time, plates were tapped against paper towel to ensure maximum removal of residual media. Test inhibitor dilutions (highest test concentration being 10 μM, 3-fold serial dilution, 10 points) prepared in DMSO (Sigma D2650) were added in incubation mix (maintaining 0.2% final DMSO concentration) containing 0.25 μM 3H-taurocholic acid (ARC ART-1368) and 5 μM of cold taurocholic acid (Sigma T4009). 50 μL of incubation mix containing test inhibitors was then added to the wells (in duplicate) and the plates were incubated for 20 minutes in a CO2 incubator at 37° C. After incubation, the reaction was stopped by keeping the plates on ice water mix for 2-3 minutes and then the incubation mix was aspirated completely from the wells. The wells were washed two times with 250 μL of chilled unlabelled 1 mM taurocholic acid dissolved in HEPES (Gibco 15630080)-buffered (10 mM) HBSS (Gibco 14175079) (pH 7.4). The plates were tapped against a paper towel after every wash to ensure maximum removal of blocking buffer.
100 μL of MicroScint-20 (PerkinElmer 6013621) was added to the wells and kept overnight at room temperature before reading the plates in TopCount NXT™ Microplate Scintillation and Luminescence Counter from PerkinElmer under 3H Test protocol (set at 120 seconds reading time per well).
as §1, §2

The nature of series [3]: Bidirectional permeability assay (Caco-2 cells). The series is classed as in vitro ADME. To be noted: human, FaSSIF donor buffer, 120 minutes at 37° C.; for Papp A→B at 120 min, 10 µM: Caco-2, pH 7.4, absorptive direction (A2B); for Papp B→A at 120 min, 10 µM: Caco-2, pH 7.4, secretory direction (B2A). An excerpt:
Bidirectional Permeability Assay (Caco-2 Cells)
HepaRG-Based Assay Protocol

The IC50 is the concentration needed to halve the response being measured. What is called Papp A→B is how fast a substance crosses the layer from the apical side. Lower therefore signals poor permeation. One may read the Papp B→A as how fast a substance crosses the layer from the basolateral side.

Take `CCCCC1CN(c2ccc(F)cc2)c2cc(SC)c(O/C=C/C(=O)O)cc2S(=O)(=O)N1` (racemic) [Example 1, (E)-3-((3-Butyl-5-(4-fluorophenyl)-7-(methylthio)-1,1-dioxido-2,3,4,5-tetrahydro-1,2,5-benzothiadiazepin-8-yl)oxy)acrylic acid]: in series [1], the IC50 stood at 1 nM. Also, the half-maximal inhibitory concentration (IC50) in series [2] is 1670 nM. In series [3], this compound yielded a Papp A→B at 120 min, 10 µM of 7.3 ×10⁻⁶ cm/s and a Papp B→A at 120 min, 10 µM of 17.2 ×10⁻⁶ cm/s.

`CCCCC1CN(c2ccc(F)cc2)c2cc(SC)c(O/C=C(\F)C(=O)O)cc2S(=O)(=O)C1` (racemic) [Example 10, (Z)-3-((3-butyl-5-(4-fluorophenyl)-7-(methylthio)-1,1-dioxido-2,3,4,5-tetrahydro-1,5-benzothiazepin-8-yl)oxy)-2-fluoroacrylic acid]: the IC50 in series [1] is 1.6 nM; in series [2], 827 nM. Also, in series [3], the Papp A→B at 120 min, 10 µM came out at 2.9 ×10⁻⁶ cm/s. Besides, in series [3], the Papp B→A at 120 min, 10 µM was 8.5 ×10⁻⁶ cm/s.

Consider `CCCCC1CN(c2ccc(F)cc2)c2cc(SCC)c(O/C=C/C(=O)O)cc2S(=O)(=O)C1` (racemic) [Example 7, (E)-3-((3-Butyl-7-(ethylthio)-5-(4-fluorophenyl)-1,1-dioxido-2,3,4,5-tetrahydro-1,5-benzothiazepin-8-yl)oxy)acrylic acid], for which the IC50 in series [1] was determined as 2.6 nM. Besides, the IC50 in series [2] is above 10000 nM. In series [3], the apparent permeability from apical to basolateral (Papp A→B) at 120 min, 10 µM came out at 11.3 ×10⁻⁶ cm/s and the Papp B→A at 120 min, 10 µM came out at 8.9 ×10⁻⁶ cm/s.

Consider `CCCCC1CN(c2ccc(F)cc2)c2cc(SC)c(O/C=C(\F)C(=O)O)cc2S(=O)(=O)N1C` (racemic) [Example 19, (Z)-3-((3-butyl-5-(4-fluorophenyl)-2-methyl-7-(methylthio)-1,1-dioxido-2,3,4,5-tetrahydro-1,2,5-benzothiadiazepin-8-yl)oxy)-2-fluoroacrylic acid], for which the IC50 in series [1] worked out at 1.9 nM; in series [2] it was 248 nM. This compound also showed a Papp A→B at 120 min, 10 µM in series [3] of 4.3 ×10⁻⁶ cm/s. For the same compound, in series [3], the Papp B→A at 120 min, 10 µM came out at 6.1 ×10⁻⁶ cm/s.

In the case of `CCCCC1CN(c2ccc(F)cc2)c2cc(SCC)c(O/C=C/C(=O)O)cc2S(=O)(=O)C1` (single isomer, unassigned) [Example 9, (E)-3-((3-butyl-7-(ethylthio)-5-(4-fluorophenyl)-1,1-dioxido-2,3,4,5-tetrahydro-1,5-benzothiazepin-8-yl)oxy)acrylic acid], in series [1], the IC50 turned out to be 2 nM. In series [3], the Papp A→B at 120 min, 10 µM is 15.5 ×10⁻⁶ cm/s and the Papp B→A at 120 min, 10 µM is 18.6 ×10⁻⁶ cm/s.

Regarding `CCCCC1CN(c2ccccc2)c2cc(SCC)c(O/C=C(\F)C(=O)O)cc2S(=O)(=O)N1C` (single isomer, unassigned) [Example 25, (Z)-3-((3-butyl-7-(ethylthio)-2-methyl-1,1-dioxido-5-phenyl-2,3,4,5-tetrahydro-1,2,5-benzothiadiazepin-8-yl)oxy)-2-fluoroacrylic acid], in series [1], the half-maximal inhibitory concentration (IC50) was determined as 0.9 nM. The half-inhibitory concentration (IC50) in series [2] worked out at 431 nM. In series [3], this compound had a Papp A→B at 120 min, 10 µM of 1.9 ×10⁻⁶ cm/s and a Papp B→A at 120 min, 10 µM of 3.9 ×10⁻⁶ cm/s.

On to `CCCCC1CN(c2ccc(F)cc2)c2cc(SCC)c(O/C=C(\F)C(=O)O)cc2S(=O)(=O)C1` (racemic) [Example 16, (Z)-3-((3-butyl-7-(ethylthio)-5-(4-fluorophenyl)-1,1-dioxido-2,3,4,5-tetrahydro-1,5-benzothiazepin-8-yl)oxy)-2-fluoroacrylic acid], for which, in series [1], the IC50 worked out at 2.5 nM. In addition, the IC50 in series [2] amounted to 1380 nM. In series [3], this compound registered a Papp A→B at 120 min, 10 µM of 1 ×10⁻⁶ cm/s and a basolateral-to-apical permeability (Papp B→A) at 120 min, 10 µM of 3.6 ×10⁻⁶ cm/s.

Regarding `CCCCC1CN(c2ccc(F)cc2)c2cc(SCC)c(O/C=C/C(=O)O)cc2S(=O)(=O)N1` (racemic) [Example 30, (E)-3-((3-butyl-7-(ethylthio)-5-(4-fluorophenyl)-1,1-dioxido-2,3,4,5-tetrahydro-1,2,5-benzothiadiazepin-8-yl)oxy)acrylic acid], the IC50 in series [1] was 2.6 nM. The 50% inhibitory concentration (IC50) in series [2] was 4100 nM. Besides, in series [3], the Papp A→B at 120 min, 10 µM is 6.5 ×10⁻⁶ cm/s and the Papp B→A at 120 min, 10 µM was found to be 8.7 ×10⁻⁶ cm/s.

On to `CCCCC1CN(c2ccc(F)cc2)c2cc(SCC)c(O/C=C(\F)C(=O)O)cc2S(=O)(=O)C1` (single isomer, unassigned) [Example 18, (Z)-3-((3-butyl-7-(ethylthio)-5-(4-fluorophenyl)-1,1-dioxido-2,3,4,5-tetrahydro-1,5-benzothiazepin-8-yl)oxy)-2-fluoroacrylic acid], for which the IC50 in series [1] turned out to be 2.6 nM; in series [2] it was 647 nM. In series [3], this compound displayed a Papp A→B at 120 min, 10 µM of 1.1 ×10⁻⁶ cm/s. In series [3], this compound showed a Papp B→A at 120 min, 10 µM of 3.1 ×10⁻⁶ cm/s.

For `CCCCC1CN(c2ccc(F)cc2)c2cc(SC)c(O/C=C(\F)C(=O)O)cc2S(=O)(=O)N1C` (single isomer, unassigned) [Example 20, (Z)-3-((3-butyl-5-(4-fluorophenyl)-2-methyl-7-(methylthio)-1,1-dioxido-2,3,4,5-tetrahydro-1,2,5-benzothiadiazepin-8-yl)oxy)-2-fluoroacrylic acid], the IC50 stood at 0.8 nM in series [1] and 135 nM in series [2]. The Papp A→B at 120 min, 10 µM in series [3] is 2.7 ×10⁻⁶ cm/s. In series [3], this compound yielded a Papp B→A at 120 min, 10 µM of 10.5 ×10⁻⁶ cm/s.

These data come from patent US11572350B1, “Benzothia(di)azepine compounds and their use as bile acid modulators” (Albireo AB, priority 2020, dated 2023).
